tested on: SREBP pathway; assay: SREBP luciferase reporter gene system (SRE-luciferase assay); type: cell-based, human; settings: Homo sapiens, Huh-7, 16 h, Huh-7/SRE-luc cells, sterol-deficient medium, 0.01-10 µM
Procedure: Huh-7/SRE-luc cells were incubated in sterol-deficient medium (5% lipoprotein deficient serum, 2 µM lovastatin, 10 µM mevalonic acid) with corresponding concentrations of compounds for 16 hours. The Huh-7/SRE-luc cells were human hepatoma cell line Huh-7 stably expressing LDLR promotor-luciferase and green fluorescent protein (GFP). These cells were obtained by transfecting Huh-7 with pLDLR-promotor-luciferase and pEGFP-N1 plasmids, followed by screening under G418 antibiotic selection pressure. The Huh-7 cells were purchased from ATCC, the pLDLR-promotor-luciferase plasmid was obtained by molecular cloning methods, and the pEGFP-N1 plasmid was purchased from Addgene.
After compound treatment, the cells were lysed with lysis buffer (E397A, Promega). After the addition of luciferase substrate (E1500, Promega), the activity of SRE-driven luciferase was measured using a BioTek Synergy HTX microplate reader (including but not limited to this type of instrument). The fluorescence intensity of green fluorescent protein (EGFP) was also measured using the above BioTek microplate reader (including but not limited to this type of instrument) and served as an internal control. The ratio of SRE-driven luciferase activity divided by the fluorescence intensity of green fluorescent protein was used as an indicator of SREBP pathway activity. The test data for each test compound were analyzed using Prism software (with the DMSO-treated group as the reference to calculate the compound inhibition rate, fitted using the Prism log(inhibitor) vs. response--Variable slope (four-parameter) model, calculation formula: Y = Bottom + (Top - Bottom)/(1 + 10^((LogIC50 - X) × HillSlope))), to obtain the IC50 parameters of the compounds.
Using the method described in 1.1, the inhibitory effect of the compounds of the present disclosure on the SREBP pathway was tested. The concentration gradient for each compound was designed as 0.01, 0.03, 0.1, 0.3, 1.0, 3.0, and 10 µM, with the vehicle DMSO as the control.

Compared with `COc1cc(C(O)CCC[C@@H](C)[C@H]2CC[C@H]3[C@H]4[C@H](CC[C@]23C)[C@@]2(C)CC[C@H](O)[C@H](O)[C@@H]2CC4(F)F)cc(F)n1` (single isomer, unassigned) [Compound 247, (1R,3aS,3bS,5aR,6R,7S,9aR,9bS,11aR)-4,4-difluoro-1-[(2R,6S)-6-(6-fluoro-2-methoxypyridin-4-yl)-6-hydroxyhexan-2-yl]-9a,11a-dimethylhexadecahydro-1H-cyclopenta[1,2-a]phenanthrene-6,7-diol or (1R,3aS,3bS,5aR,6R,7S,9aR,9bS,11aR)-4,4-difluoro-1-[(2R,6R)-6-(6-fluoro-2-methoxypyridin-4-yl)-6-hydroxyhexan-2-yl]-9a,11a-dimethylhexadecahydro-1H-cyclopenta[1,2-a]phenanthrene-6,7-diol], `COc1nc(F)cc(F)c1[C@H](O)CCC[C@@H](C)[C@H]1CC[C@H]2[C@H]3[C@H](CC[C@]12C)[C@@]1(C)CC[C@H](O)[C@H](O)[C@@H]1CC3(F)F` (single isomer, unassigned) [Compound 256] is 2.5-fold higher in IC50: 0.04 µM for the first, 0.099 µM for the second. The first is the more potent here.

Compared with `COc1cncc(F)c1C(O)CCC[C@@H](C)[C@H]1CC[C@H]2[C@H]3[C@H](CC[C@]12C)[C@@]1(C)CC[C@H](O)[C@H](O)[C@@H]1CC3(F)F` (single isomer, unassigned) [Compound 251, (1R,3aS,3bS,5aR,6R,7S,9aR,9bS,11aR)-4,4-difluoro-1-[(2R,6S)-6-(3-fluoro-5-methoxypyridin-4-yl)-6-hydroxyhexan-2-yl]-9a,11a-dimethylhexadecahydro-1H-cyclopenta[1,2-a]phenanthrene-6,7-diol or (1R,3aS,3bS,5aR,6R,7S,9aR,9bS,11aR)-4,4-difluoro-1-[(2R,6R)-6-(3-fluoro-5-methoxypyridin-4-yl)-6-hydroxyhexan-2-yl]-9a,11a-dimethylhexadecahydro-1H-cyclopenta[1,2-a]phenanthrene-6,7-diol], `COc1cc(F)nc(OC)c1[C@H](O)CCC[C@@H](C)[C@H]1CC[C@H]2[C@H]3[C@H](CC[C@]12C)[C@@]1(C)CC[C@H](O)[C@H](O)[C@@H]1CC3(F)F` (single isomer, unassigned) [Compound 264] is 4.5-fold higher in IC50: 0.042 µM for the first, 0.189 µM for the second.

`C[C@H](CCCC(O)c1ccc2c(c1)OC(F)(F)O2)[C@H]1CC[C@H]2[C@H]3[C@H](CC[C@]12C)[C@@]1(C)CC[C@H](O)[C@H](O)[C@@H]1CC3(F)F` (single isomer, unassigned) [Compound 258, (1R,3aS,3bS,5aR,6R,7S,9aR,9bS,11aR)-1-[(2R,6S)-6-(2,2-difluorobenzo[d][1,3]dioxol-5-yl)-6-hydroxyhexan-2-yl]-4,4-difluoro-9a,11a-dimethylhexadecahydro-1H-cyclopenta[1,2-a]phenanthrene-6,7-diol or (1R,3aS,3bS,5aR,6R,7S,9aR,9bS,11aR)-1-[(2R,6R)-6-(2,2-difluorobenzo[d][1,3]dioxol-5-yl)-6-hydroxyhexan-2-yl]-4,4-difluoro-9a,11a-dimethylhexadecahydro-1H-cyclopenta[1,2-a]phenanthrene-6,7-diol] showed an IC50 of 0.454 µM.

same assay, conditions: Huh-7/SRE-luc cells, sterol-deficient medium, 16 hours, 0.01-10 µM

`COc1cc(C(O)CCC[C@@H](C)[C@H]2CC[C@H]3[C@H]4[C@H](CC[C@]23C)[C@@]2(C)CC[C@H](O)[C@H](O)[C@@H]2CC4(F)F)cc(F)n1` (single isomer, unassigned) [Compound 248, (1R,3aS,3bS,5aR,6R,7S,9aR,9bS,11aR)-4,4-difluoro-1-[(2R,6R)-6-(6-fluoro-2-methoxypyridin-4-yl)-6-hydroxyhexan-2-yl]-9a,11a-dimethylhexadecahydro-1H-cyclopenta[1,2-a]phenanthrene-6,7-diol or (1R,3aS,3bS,5aR,6R,7S,9aR,9bS,11aR)-4,4-difluoro-1-[(2R,6S)-6-(6-fluoro-2-methoxypyridin-4-yl)-6-hydroxyhexan-2-yl]-9a,11a-dimethylhexadecahydro-1H-cyclopenta[1,2-a]phenanthrene-6,7-diol] and `COc1cncc(F)c1C(O)CCC[C@@H](C)[C@H]1CC[C@H]2[C@H]3[C@H](CC[C@]12C)[C@@]1(C)CC[C@H](O)[C@H](O)[C@@H]1CC3(F)F` (single isomer, unassigned) [Compound 252, (1R,3aS,3bS,5aR,6R,7S,9aR,9bS,11aR)-4,4-difluoro-1-[(2R,6R)-6-(3-fluoro-5-methoxypyridin-4-yl)-6-hydroxyhexan-2-yl]-9a,11a-dimethylhexadecahydro-1H-cyclopenta[1,2-a]phenanthrene-6,7-diol or (1R,3aS,3bS,5aR,6R,7S,9aR,9bS,11aR)-4,4-difluoro-1-[(2R,6S)-6-(3-fluoro-5-methoxypyridin-4-yl)-6-hydroxyhexan-2-yl]-9a,11a-dimethylhexadecahydro-1H-cyclopenta[1,2-a]phenanthrene-6,7-diol] are within 1.5-fold of each other in IC50: 0.035 µM for the first, 0.031 µM for the second.

Going from `C[C@H](CCCC(O)c1ccc2c(c1)OC(F)(F)O2)[C@H]1CC[C@H]2[C@H]3[C@H](CC[C@]12C)[C@@]1(C)CC[C@H](O)[C@H](O)[C@@H]1CC3(F)F` (single isomer, unassigned) [Compound 259, (1R,3aS,3bS,5aR,6R,7S,9aR,9bS,11aR)-1-[(2R,6R)-6-(2,2-difluorobenzo[d][1,3]dioxol-5-yl)-6-hydroxyhexan-2-yl]-4,4-difluoro-9a,11a-dimethylhexadecahydro-1H-cyclopenta[1,2-a]phenanthrene-6,7-diol or (1R,3aS,3bS,5aR,6R,7S,9aR,9bS,11aR)-1-[(2R,6S)-6-(2,2-difluorobenzo[d][1,3]dioxol-5-yl)-6-hydroxyhexan-2-yl]-4,4-difluoro-9a,11a-dimethylhexadecahydro-1H-cyclopenta[1,2-a]phenanthrene-6,7-diol] to `C[C@H](CCCC(O)c1cccc2cn[nH]c12)[C@H]1CC[C@H]2[C@H]3[C@H](CC[C@]12C)[C@@]1(C)CC[C@H](O)[C@H](O)[C@@H]1CC3(F)F` (single isomer, unassigned) [Compound 268, (1R,3aS,3bS,5aR,6R,7S,9aR,9bS,11aR)-4,4-difluoro-1-[(2R,6S)-6-hydroxy-6-(1H-indazol-7-yl)hexan-2-yl]-9a,11a-dimethylhexadecahydro-1H-cyclopenta[1,2-a]phenanthrene-6,7-diol or (1R,3aS,3bS,5aR,6R,7S,9aR,9bS,11aR)-4,4-difluoro-1-[(2R,6R)-6-hydroxy-6-(1H-indazol-7-yl)hexan-2-yl]-9a,11a-dimethylhexadecahydro-1H-cyclopenta[1,2-a]phenanthrene-6,7-diol], the IC50 falls from 0.249 µM to 0.141 µM (1.8-fold). The second is the more potent here.

First: C[C@H](CCCC(O)c1cccc2cn[nH]c12)[C@H]1CC[C@H]2[C@H]3[C@H](CC[C@]12C)[C@@]1(C)CC[C@H](O)[C@H](O)[C@@H]1CC3(F)F (single isomer, unassigned) [Compound 269, (1R,3aS,3bS,5aR,6R,7S,9aR,9bS,11aR)-4,4-difluoro-1-[(2R,6R)-6-hydroxy-6-(1H-indazol-7-yl)hexan-2-yl]-9a,11a-dimethylhexadecahydro-1H-cyclopenta[1,2-a]phenanthrene-6,7-diol or (1R,3aS,3bS,5aR,6R,7S,9aR,9bS,11aR)-4,4-difluoro-1-[(2R,6S)-6-hydroxy-6-(1H-indazol-7-yl)hexan-2-yl]-9a,11a-dimethylhexadecahydro-1H-cyclopenta[1,2-a]phenanthrene-6,7-diol]
Second: C[C@H](CCCC(O)c1cccc2[nH]ncc12)[C@H]1CC[C@H]2[C@H]3[C@H](CC[C@]12C)[C@@]1(C)CC[C@H](O)[C@H](O)[C@@H]1CC3(F)F (single isomer, unassigned) [Compound 273, (1R,3aS,3bS,5aR,6R,7S,9aR,9bS,11aR)-4,4-difluoro-1-[(2R,6S)-6-hydroxy-6-(1H-indazol-4-yl)hexan-2-yl]-9a,11a-dimethylhexadecahydro-1H-cyclopenta[1,2-a]phenanthrene-6,7-diol or (1R,3aS,3bS,5aR,6R,7S,9aR,9bS,11aR)-4,4-difluoro-1-[(2R,6R)-6-hydroxy-6-(1H-indazol-4-yl)hexan-2-yl]-9a,11a-dimethylhexadecahydro-1H-cyclopenta[1,2-a]phenanthrene-6,7-diol]
The IC50 of the first is 2.2-fold higher: 0.8 µM for the first, 0.361 µM for the second.

Work on `C[C@H](CCCC(O)c1cccc2[nH]ncc12)[C@H]1CC[C@H]2[C@H]3[C@H](CC[C@]12C)[C@@]1(C)CC[C@H](O)[C@H](O)[C@@H]1CC3(F)F` (single isomer, unassigned) [Compound 274, (1R,3aS,3bS,5aR,6R,7S,9aR,9bS,11aR)-4,4-difluoro-1-[(2R,6R)-6-hydroxy-6-(1H-indazol-4-yl)hexan-2-yl]-9a,11a-dimethylhexadecahydro-1H-cyclopenta[1,2-a]phenanthrene-6,7-diol or (1R,3aS,3bS,5aR,6R,7S,9aR,9bS,11aR)-4,4-difluoro-1-[(2R,6S)-6-hydroxy-6-(1H-indazol-4-yl)hexan-2-yl]-9a,11a-dimethylhexadecahydro-1H-cyclopenta[1,2-a]phenanthrene-6,7-diol] yielded an IC50 of 0.758 µM.

Source: patent EP4752152A1, “STEROID COMPOUND, AND PREPARATION METHOD THEREFOR AND USE THEREOF” (Cholesgen (Shanghai) Co.Ltd., priority 2023, dated 2025)
